Laboratory results as given in PMC6112376, “Comprehensive Analyses and Prioritization of Tox21 10K Chemicals Affecting Mitochondrial Function by in-Depth Mechanistic Studies” (Environmental Health Perspectives, 2018).
Like-named read-outs stand apart in the source and are kept apart here.

Columns and labels:
hNSC = assay: MMP assay in human neural stem cells (hNSC); assay type: cell-based; conditions: mean±SD of three experiments
HepG2 cells [1] = assay: ROS-Glo hydrogen peroxide (ROS) assay; assay type: cell-based, human; conditions: 2 h treatment; mean±SD of three experiments
HepG2 cells [2] = assay: Intracellular ATP content (cell viability) assay; assay type: cell-based, human; conditions: for IC50: 40 h treatment, mean±SD of three experiments
[3] = test system: p53 (p53-bla HCT-116 cells); assay: p53 β-lactamase reporter gene assay; assay type: cell-based, human; conditions: 16 h incubation; mean±SD of three experiments
[4] = test system: Nrf2/ARE (ARE-bla HepG2 cells); assay: ARE β-lactamase reporter gene assay; assay type: cell-based, human
[5] = test system: isolated rat liver mitochondria; assay: Oxygen consumption, Clark-type oxygen electrode; assay type: biochemical; conditions: for I-ADP, % of control (O2 consumption rate): glutamate/malate driven state 3 respiration; for I-ADP, % of control (O2 consumption rate) / I-sub, % of control (O2 consumption rate) / II-ADP, % of control (O2 consumption rate) / II-sub, % of control (O2 consumption rate): isolated rat liver mitochondria; for I-sub, % of control (O2 consumption rate): glutamate/malate driven state 4 respiration; for II-ADP, % of control (O2 consumption rate): succinate-driven state 3 respiration; for II-sub, % of control (O2 consumption rate): succinate-driven state 4 respiration
HepG2 cells [6] = assay: Oxygen consumption, Seahorse XF24 analyzer; assay type: cell-based, human; conditions: Seahorse XF24; HepG2 cells; 25 mM glucose; 1, 4, 16, and 64μM
[7] = test system: mitochondrial respiratory chain complex I; assay type: biochemical, rat; conditions: at 100μM
[8] = target: T1, mitochondrial respiratory chain complex II (Rattus norvegicus, UniProt P21913+Q641Z9+Q6PCT8+Q920L2); assay: Respiratory chain complex II activity; assay type: biochemical; conditions: at 100μM; mean±SD of three experiments
T1 construct: Submitochondrial particles were prepared by subjecting the intact rat mitochondria, isolated as described above, to three successive freeze–thaw cycles; from tissue; host or cells: rat liver mitochondria (submitochondrial particles)
T1 sequence (Q920L2 35-656): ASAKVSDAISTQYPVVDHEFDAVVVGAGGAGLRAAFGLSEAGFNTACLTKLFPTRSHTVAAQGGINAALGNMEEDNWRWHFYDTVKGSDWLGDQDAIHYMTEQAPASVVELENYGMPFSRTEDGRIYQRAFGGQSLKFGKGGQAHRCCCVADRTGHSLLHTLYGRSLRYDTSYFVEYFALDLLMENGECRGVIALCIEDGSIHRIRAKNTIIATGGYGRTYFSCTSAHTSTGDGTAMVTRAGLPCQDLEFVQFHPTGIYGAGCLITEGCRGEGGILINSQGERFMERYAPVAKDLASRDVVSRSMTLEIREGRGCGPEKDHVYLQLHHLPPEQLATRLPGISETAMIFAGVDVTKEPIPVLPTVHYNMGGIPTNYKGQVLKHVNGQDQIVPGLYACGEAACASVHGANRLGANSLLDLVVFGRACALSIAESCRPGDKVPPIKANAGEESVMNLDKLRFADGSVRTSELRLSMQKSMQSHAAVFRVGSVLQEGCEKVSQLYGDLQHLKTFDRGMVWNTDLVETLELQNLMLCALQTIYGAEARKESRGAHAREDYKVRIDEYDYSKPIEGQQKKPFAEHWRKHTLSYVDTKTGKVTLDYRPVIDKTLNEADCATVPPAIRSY
T1 sequence (P21913 31-282): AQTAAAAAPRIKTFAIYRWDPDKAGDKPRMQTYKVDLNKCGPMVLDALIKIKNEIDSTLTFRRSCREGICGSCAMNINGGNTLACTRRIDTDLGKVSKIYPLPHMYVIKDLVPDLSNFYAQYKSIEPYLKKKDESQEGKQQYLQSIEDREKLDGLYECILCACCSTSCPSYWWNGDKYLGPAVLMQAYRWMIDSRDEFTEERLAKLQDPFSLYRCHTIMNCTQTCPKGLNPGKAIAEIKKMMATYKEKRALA
T1 sequence (Q641Z9 1-169): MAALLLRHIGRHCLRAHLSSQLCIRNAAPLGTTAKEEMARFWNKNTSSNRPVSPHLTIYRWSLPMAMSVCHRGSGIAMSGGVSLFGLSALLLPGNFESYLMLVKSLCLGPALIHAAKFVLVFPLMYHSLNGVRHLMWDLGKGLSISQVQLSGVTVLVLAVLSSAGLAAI
T1 sequence (Q6PCT8 57-159): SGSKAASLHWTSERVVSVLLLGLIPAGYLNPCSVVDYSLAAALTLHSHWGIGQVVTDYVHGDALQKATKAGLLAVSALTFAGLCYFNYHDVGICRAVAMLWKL

[9] = test system: mitochondrial respiratory chain complex III; assay type: biochemical, rat; conditions: at 100μM
[10] = test system: mitochondrial respiratory chain complex IV; assay type: biochemical, rat
[11] = test system: mitochondrial respiratory chain complex V; assay type: biochemical, rat
[12] = test system: HeLa cells expressing YFP-Parkin; assay: Parkin translocation assay; assay type: cell-based, human; conditions: HeLa cells stably expressing YFP-Parkin; treated for 2 h
HepG2 cells [13] = test system: HepG2 cells
HepG2 cells [14] = conditions: cited from earlier work
[15] = test system: Caenorhabditis elegans strain PE255; assay: In vivo C. elegans ATP status assay
rat primary hepatocytes = assay: MMP assay in rat primary hepatocytes
[16] = test system: Caenorhabditis elegans (Bristol N2); assay: C. elegans larval development and growth assay

Cl.N=C1C=CC(=C(c2ccc(N)cc2)c2ccc(N)cc2)C=C1 [C.I. Basic red 9 monohydrochloride]
IC50 (hNSC; 1 h treatment, fresh re-sourced stocks, read-out: hNSC IC50 (MMP)): 2.55 ± 0.58 µM
hNSC (efficacy) (MMP) (hNSC; % of positive control): −70.3±7.17%
ROS (HepG2) EC50 (HepG2 cells [1]): Inactive
IC50 (HepG2 cells [2]; 5 mM glucose, read-out: ATP (HepG2, glucose) IC50): 9.72 ± 5.01 µM
ATP (HepG2, glucose) (efficacy) (HepG2 cells [2]; 5 mM glucose, % of positive control): −101±8.17%
IC50 (HepG2 cells [2]; 10 mM galactose, read-out: ATP (HepG2, galactose) IC50): 6.25 ± 2.01 µM
ATP (HepG2, galactose) (efficacy) (HepG2 cells [2]; 10 mM galactose, % of positive control): −98.4±12.9%
p53 (HCT-116) EC50 [3]: Inactive
EC50 ([4]; 16 h incubation, mean±SD of three experiments, read-out: ARE (HepG2) EC50): 11.7 ± 7.37 µM
ARE (HepG2) (efficacy) ([4]; % of positive control): 107±42.3%
I-ADP, % of control (O2 consumption rate) ([5]; 0.8 µM): 94 (41.0) % of control
I-sub, % of control (O2 consumption rate) ([5]; 0.8 µM): 100 (13.1) % of control
II-ADP, % of control (O2 consumption rate) ([5]; 0.8 µM): 97 (65.8) % of control
II-sub, % of control (O2 consumption rate) ([5]; 0.8 µM): 96 (20.1) % of control
I-ADP, % of control (O2 consumption rate) ([5]; 4 µM): 82 (35.8) % of control
I-sub, % of control (O2 consumption rate) ([5]; 4 µM): 92 (12.1) % of control
II-ADP, % of control (O2 consumption rate) ([5]; 4 µM): 93 (63.1) % of control
II-sub, % of control (O2 consumption rate) ([5]; 4 µM): 101 (21.1) % of control
I-ADP, % of control (O2 consumption rate) ([5]; 20 µM): 64 (27.9) % of control
I-sub, % of control (O2 consumption rate) ([5]; 20 µM): 106 (13.9) % of control
II-ADP, % of control (O2 consumption rate) ([5]; 20 µM): 66 (44.4) % of control
II-sub, % of control (O2 consumption rate) ([5]; 20 µM): 110 (22.9) % of control
I-ADP, % of control (O2 consumption rate) ([5]; 100 µM): 17 (9.1) % of control
I-sub, % of control (O2 consumption rate) ([5]; 100 µM): 94 (12.7) % of control
II-ADP, % of control (O2 consumption rate) ([5]; 100 µM): 31 (21.0) % of control
II-sub, % of control (O2 consumption rate) ([5]; 100 µM): 96 (20.8) % of control
effect on mitochondrial respiration (in words) ([5]; Clark-type oxygen electrode, concentrations up to 100μM): moderate inhibitory effect on state 3 respiration driven by both glutamate/malate and succinate, but not on state 4 respiration
Potential Mechanism ([5]; mitochondrial respiration in isolated rat liver mitochondria, Clark type oxygen electrode, over tested concentrations): Inhibitor
Activity in oxygen consumption (HepG2 cells [6]): Inhibitor
Complex I % inhibition [7]: 14.1±2.98 at 100μM %
Complex II % inhibition [8]: 12.2±3.48 at 100μM %
Complex III % inhibition [9]: 21.6±6.41 at 100μM %
Complex IV % inhibition (activity call) [10]: Inactive
Complex V % inhibition (activity call) [11]: Inactive
Parkin recruitment [12]: Inactive
HepG2 (efficacy) Glucose (MMP) (HepG2 cells [13]; 5 mM glucose, % of positive control, mean±SD of three experiments): −97.1±6.48%
HepG2 (efficacy) Galactose (MMP) (HepG2 cells [13]; 10 mM galactose, % of positive control, mean±SD of three experiments): −89.4±4.30%
MMP assays efficacy (%) HepG2 (HepG2 cells [13]; HepG2 cells, single number from one experiment): -94%
IC50 (HepG2 cells [13]; read-out: HepG2 IC50 Galactose (MMP), 10 mM galactose, no glucose, 1 h treatment, mean±SD of three experiments): 2.53 ± 0.46 µM
IC50 (HepG2 cells [13]; read-out: HepG2 IC50 Glucose (MMP), 5 mM glucose, 1 h treatment, fresh re-sourced stocks, mean±SD of three experiments): 1.66 ± 0.28 µM
IC50 (HepG2 cells [13]; read-out: MMP assays IC50 (µM) HepG2, HepG2 cells, single number from one experiment): 0.56 µM
MMP assays efficacy (%) qHTS-HepG2 (HepG2 cells [14]): -95±11%
IC50 (HepG2 cells [14]; read-out: MMP assays IC50 (µM) qHTS-HepG2): 0.08 ± 0.02 µM
LUM: mean difference in luminescence (ATP content) relative to plate controls ([15]; 0.5 µM): 0.1703
LUM: mean difference in luminescence (ATP content) relative to plate controls ([15]; 1 µM): 0.2203
LUM: mean difference in luminescence (ATP content) relative to plate controls ([15]; 5 µM): 0.7285
LUM: mean difference in luminescence (ATP content) relative to plate controls ([15]; 10 µM): 0.8296
LUM: mean difference in luminescence (ATP content) relative to plate controls ([15]; 25 µM): 1.533
LUM: mean difference in luminescence (ATP content) relative to plate controls ([15]; 50 µM): 2.0258
LUM: mean difference in luminescence (ATP content) relative to plate controls ([15]; 75 µM): 2.358
LUM: mean difference in luminescence (ATP content) relative to plate controls ([15]; 100 µM): 2.677
LEC (lowest effect concentration), ATP assay ([15]; 24 h exposure): ≤ 10 µM
LEC LUM: lowest effect concentration for luminescence, a measure of nematode ATP content ([15]; C. elegans ATP, JT trend test, Bonferoni correction p<0.05): 5 µM
Rat hepatocytes (efficacy) (MMP) (rat primary hepatocytes; % of positive control, mean±SD of three experiments): −90.3±2.77%
MMP assays efficacy (%) Rat Hepatocytes (rat primary hepatocytes; rat hepatocytes, mean ± SD of three experiments): -96±23%
IC50 (rat primary hepatocytes; read-out: MMP assays IC50 (µM) Rat Hepatocytes, rat hepatocytes, mean ± SD of three experiments): 4.11 ± 4.24 µM
IC50 (rat primary hepatocytes; read-out: Rat hepatocytes IC50 (MMP), 1 h treatment, fresh re-sourced stocks, mean±SD of three experiments): 6.3 ± 0.43 µM
EXT: mean difference in nematode size relative to plate controls ([16]; 0.5 µM): 0.03177
EXT: mean difference in nematode size relative to plate controls ([16]; 1 µM): -0.03542
EXT: mean difference in nematode size relative to plate controls ([16]; 5 µM): 0.06311
EXT: mean difference in nematode size relative to plate controls ([16]; 10 µM): 0.04374
EXT: mean difference in nematode size relative to plate controls ([16]; 25 µM): 0.1555
EXT: mean difference in nematode size relative to plate controls ([16]; 50 µM): 0.3061
EXT: mean difference in nematode size relative to plate controls ([16]; 75 µM): 1.032
EXT: mean difference in nematode size relative to plate controls ([16]; 100 µM): 1.117
LEC EXT: lowest effect concentration for extinction, a measure of nematode size ([16]; C. elegans larval growth, JT trend test, Bonferoni correction p<0.05): 50 µM
